Reference: ChEMBL document CHEMBL1201862, “PubChem BioAssay data set” (2004)
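How tested: cells in 96-well plates exposed to compound for 48 hours at five concentrations. Abbreviation: GI50, concentration required for 50% inhibition of growth.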 Calls of active or inactive are those of the source. Rule as the data show it: active = GI50 up to about 1.1 µM and inactive = higher.

How the values were obtained:
Experiment in all cases: inhibition of tumour cell growth, NCI panel, 48 h
[1] = tested on: UO-31
[2] = tested on: U-251
[3] = tested on: MCF7
[4] = tested on: A549
[5] = tested on: OVCAR-5
[6] = tested on: HCT-15
[7] = tested on: NCI-H460
[8] = tested on: MDA-MB-435
[9] = tested on: K562
[10] = tested on: CCRF-CEM
[11] = tested on: RPMI-8226
[12] = tested on: MDA-MB-231
[13] = tested on: LOX IMVI
[14] = tested on: SNB-75
[15] = tested on: SR
[16] = tested on: OVCAR-4
[17] = tested on: NCI-H23
[18] = tested on: BT-549
[19] = tested on: COLO 205
[20] = tested on: MOLT-4
[21] = tested on: HOP-62
[22] = tested on: A498
[23] = tested on: SK-MEL-28
[24] = tested on: T47D
[25] = tested on: SK-MEL-2
[26] = tested on: SN12C
[27] = tested on: SNB-19
[28] = tested on: NCI/ADR-RES
[29] = tested on: SK-MEL-5
[30] = tested on: DU-145
[31] = tested on: PC-3
[32] = tested on: HCT-116
[33] = tested on: HT-29
[34] = tested on: EKVX
[35] = tested on: IGROV-1
[36] = tested on: HOP-92
[37] = tested on: M14
[38] = tested on: KM12
[39] = tested on: SW-620
[40] = tested on: UACC-257
[41] = tested on: HCC 2998
[42] = tested on: CAKI-1
[43] = tested on: SF-539
[44] = tested on: NCI-H522
[45] = tested on: Hs-578T
[46] = tested on: OVCAR-8
[47] = tested on: Malme-3M
[48] = tested on: SF-268
[49] = tested on: TK-10
[50] = tested on: UACC-62
[51] = tested on: MDA-N
[52] = tested on: SF-295
[53] = tested on: HL-60
[54] = tested on: SK-OV-3
[55] = tested on: 786-0
[56] = tested on: RXF 393
[57] = tested on: OVCAR-3
[58] = tested on: ACHN
[59] = tested on: NCI-H226

Cc1nc(-c2ccccc2)cn2c1nc1ccccc12
GI50 [1]: 13.6 µM (inactive)
GI50 [2]: 18.6 µM (inactive)
GI50 [3]: 2.8 µM (inactive)
GI50 [4]: 19.4 µM (inactive)
GI50 [5]: > 31.6 µM (inactive)
GI50 [6]: 16.4 µM
GI50 [7]: 17.7 µM (inactive)
GI50 [8]: 19.2 µM (inactive)
GI50 [9]: > 61.7 µM (inactive)
GI50 [10]: > 58.7 µM (inactive)
GI50 [11]: 41.1 µM (inactive)
GI50 [12]: 29.9 µM (inactive)
GI50 [13]: 20.8 µM (inactive)
GI50 [14]: 17.2 µM (inactive)
GI50 [15]: 27.2 µM (inactive)
GI50 [16]: 20.9 µM (inactive)
GI50 [17]: 25.9 µM (inactive)
GI50 [18]: 17.4 µM (inactive)
GI50 [19]: 37.9 µM (inactive)
GI50 [20]: 44 µM (inactive)
GI50 [21]: 20.9 µM (inactive)
GI50 [22]: 15.3 µM (inactive)
GI50 [23]: 30.5 µM (inactive)
GI50 [24]: 2.05 µM (inactive)
GI50 [25]: 20.2 µM (inactive)
GI50 [26]: 29.7 µM (inactive)
GI50 [27]: 29.5 µM (inactive)
GI50 [28]: 20.9 µM (inactive)
GI50 [29]: 13.9 µM (inactive)
GI50 [30]: 31.8 µM (inactive)
GI50 [31]: 24.7 µM (inactive)
GI50 [32]: 25.9 µM (inactive)
GI50 [33]: 24.3 µM (inactive)
GI50 [34]: 25.2 µM (inactive)
GI50 [35]: 19.9 µM (inactive)
GI50 [36]: 21 µM (inactive)
GI50 [37]: 30.5 µM (inactive)
GI50 [38]: 20.8 µM (inactive)
GI50 [39]: 27.7 µM (inactive)
GI50 [40]: 29 µM (inactive)
GI50 [41]: 51.4 µM (inactive)
GI50 [42]: 21.1 µM (inactive)
GI50 [43]: 23.1 µM (inactive)
GI50 [44]: 24.9 µM (inactive)
GI50 [45]: 35.4 µM (inactive)
GI50 [46]: 18.8 µM (inactive)
GI50 [47]: 23.9 µM (inactive)
GI50 [48]: 28.5 µM (inactive)
GI50 [49]: 29.3 µM (inactive)
GI50 [50]: 14.7 µM (inactive)
GI50 [51]: 21.8 µM (inactive)
GI50 [52]: 23.9 µM (inactive)
GI50 [53]: 67 µM (inactive)
GI50 [54]: 6.32 µM (inactive)
GI50 [55]: 21 µM (inactive)
GI50 [56]: 19.6 µM (inactive)
GI50 [57]: 26.7 µM (inactive)
GI50 [58]: 21.7 µM (inactive)
GI50 [59]: 17.5 µM (inactive)

CC(C)(C)[Si](C)(C)OCC1C=CC(n2cnc3c(N)ncnc32)O1 (configuration not stated)
GI50 [1]: 52 µM (inactive)
GI50 [2]: 32.1 µM (inactive)
GI50 [3]: 30.1 µM (inactive)
GI50 [4]: > 100 µM (inactive)
GI50 [5]: 72.8 µM (inactive)
GI50 [6]: 53.1 µM
GI50 [7]: > 100 µM (inactive)
GI50 [8]: 22.3 µM (inactive)
GI50 [9]: 9.1 µM (inactive)
GI50 [10]: 8.32 µM (inactive)
GI50 [11]: 16.7 µM (inactive)
GI50 [12]: 44.2 µM (inactive)
GI50 [13]: 23 µM (inactive)
GI50 [14]: 16.6 µM (inactive)
GI50 [15]: 15.1 µM (inactive)
GI50 [16]: 32.9 µM (inactive)
GI50 [17]: 39.1 µM (inactive)
GI50 [18]: 24.7 µM (inactive)
GI50 [19]: > 73.1 µM (inactive)
GI50 [20]: 10.1 µM (inactive)
GI50 [21]: 69.8 µM (inactive)
GI50 [22]: > 79.3 µM (inactive)
GI50 [23]: > 62.1 µM (inactive)
GI50 [24]: 20.6 µM (inactive)
GI50 [25]: 39.4 µM (inactive)
GI50 [26]: 35.9 µM (inactive)
GI50 [27]: 94.2 µM (inactive)
GI50 [28]: 34.2 µM (inactive)
GI50 [29]: 15.4 µM (inactive)
GI50 [30]: 64.3 µM (inactive)
GI50 [31]: 39.8 µM (inactive)
GI50 [32]: 20.1 µM (inactive)
GI50 [33]: 53.5 µM (inactive)
GI50 [34]: > 59.8 µM (inactive)
GI50 [35]: 46.6 µM (inactive)
GI50 [36]: 9.04 µM (inactive)
GI50 [37]: 23.8 µM (inactive)
GI50 [38]: 59.2 µM (inactive)
GI50 [39]: 21 µM (inactive)
GI50 [40]: 36 µM (inactive)
GI50 [41]: > 100 µM (inactive)
GI50 [42]: > 100 µM (inactive)
GI50 [43]: > 47.4 µM (inactive)
GI50 [44]: 33.2 µM (inactive)
GI50 [45]: 47.2 µM (inactive)
GI50 [46]: 42.6 µM (inactive)
GI50 [47]: 61.1 µM (inactive)
GI50 [48]: 83.2 µM (inactive)
GI50 [49]: > 100 µM (inactive)
GI50 [50]: 44.5 µM (inactive)
GI50 [51]: 26.6 µM (inactive)
GI50 [52]: 55.2 µM (inactive)
GI50 [53]: 9.02 µM (inactive)
GI50 [54]: 81.1 µM (inactive)
GI50 [55]: 61.2 µM (inactive)
GI50 [56]: 24.1 µM (inactive)
GI50 [57]: 24.1 µM (inactive)
GI50 [58]: > 100 µM (inactive)
GI50 [59]: 19.2 µM (inactive)

C=C1C[C@@H](O)[C@@H](Br)C(C)(C)[C@]12CCC(C)(Br)C(Cl)C2 (some centres not stated)
GI50 [1]: > 50 µM (inactive)
GI50 [2]: > 50 µM (inactive)
GI50 [3]: > 50 µM (inactive)
GI50 [4]: > 50 µM (inactive)
GI50 [5]: 1.7 µM (inactive)
GI50 [6]: > 50 µM
GI50 [7]: > 50 µM (inactive)
GI50 [8]: > 50 µM (inactive)
GI50 [9]: > 50 µM (inactive)
GI50 [10]: > 50 µM (inactive)
GI50 [11]: 43.9 µM (inactive)
GI50 [12]: > 50 µM (inactive)
GI50 [13]: > 50 µM (inactive)
GI50 [14]: > 50 µM (inactive)
GI50 [15]: > 50 µM (inactive)
GI50 [16]: > 50 µM (inactive)
GI50 [17]: > 50 µM (inactive)
GI50 [18]: > 50 µM (inactive)
GI50 [19]: 0.791 µM (active)
GI50 [20]: > 50 µM (inactive)
GI50 [21]: > 50 µM (inactive)
GI50 [22]: > 50 µM (inactive)
GI50 [23]: > 50 µM (inactive)
GI50 [24]: > 50 µM (inactive)
GI50 [25]: > 50 µM (inactive)
GI50 [26]: > 50 µM (inactive)
GI50 [27]: > 50 µM (inactive)
GI50 [28]: > 50 µM (inactive)
GI50 [29]: > 50 µM (inactive)
GI50 [30]: > 50 µM (inactive)
GI50 [31]: 0.8 µM (active)
GI50 [32]: > 50 µM (inactive)
GI50 [33]: 6.1 µM (inactive)
GI50 [34]: 25.4 µM (inactive)
GI50 [35]: > 50 µM (inactive)
GI50 [36]: > 50 µM (inactive)
GI50 [37]: > 50 µM (inactive)
GI50 [38]: 1.07 µM (active)
GI50 [39]: > 50 µM (inactive)
GI50 [40]: > 50 µM (inactive)
GI50 [41]: > 50 µM (inactive)
GI50 [42]: > 50 µM (inactive)
GI50 [43]: > 50 µM (inactive)
GI50 [44]: > 50 µM (inactive)
GI50 [45]: > 50 µM (inactive)
GI50 [46]: > 50 µM (inactive)
GI50 [47]: > 50 µM (inactive)
GI50 [48]: > 50 µM (inactive)
GI50 [49]: > 50 µM (inactive)
GI50 [50]: > 50 µM (inactive)
GI50 [51]: > 50 µM (inactive)
GI50 [52]: > 50 µM (inactive)
GI50 [53]: 1.03 µM (active)
GI50 [54]: > 50 µM (inactive)
GI50 [55]: > 50 µM (inactive)
GI50 [56]: > 50 µM (inactive)
GI50 [57]: > 50 µM (inactive)
GI50 [58]: > 50 µM (inactive)
GI50 [59]: 41.3 µM (inactive)
